From article PMC4059234, “Edc3 Function in Yeast and Mammals Is Modulated by Interaction with NAD-Related Compounds” (G3: Genes|Genomes|Genetics, 2014) come the findings set out here.

In one assay the target is T1, hEdc3 (Homo sapiens, UniProt Q96F86).
T1 construct: gene EDC3; full-length hEdc3
T1 sequence (Q96F86 1-508): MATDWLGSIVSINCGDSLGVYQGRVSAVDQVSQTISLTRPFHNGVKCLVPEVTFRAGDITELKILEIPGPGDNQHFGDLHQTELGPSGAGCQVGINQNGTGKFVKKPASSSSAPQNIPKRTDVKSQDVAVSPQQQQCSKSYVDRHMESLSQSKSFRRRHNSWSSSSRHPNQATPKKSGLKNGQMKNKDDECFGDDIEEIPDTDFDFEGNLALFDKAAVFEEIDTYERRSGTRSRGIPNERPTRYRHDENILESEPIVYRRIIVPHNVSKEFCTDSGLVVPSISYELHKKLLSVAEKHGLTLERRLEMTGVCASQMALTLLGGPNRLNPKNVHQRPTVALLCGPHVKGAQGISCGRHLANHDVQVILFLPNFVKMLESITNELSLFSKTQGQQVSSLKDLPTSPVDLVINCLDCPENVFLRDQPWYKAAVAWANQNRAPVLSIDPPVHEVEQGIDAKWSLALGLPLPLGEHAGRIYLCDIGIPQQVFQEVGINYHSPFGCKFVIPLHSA
In words: isothermal titration calorimetry ([…]°, pH […]). The format is binding.

The next assay deals with T2, yEdc3 (Saccharomyces cerevisiae, UniProt P39998).
T2 construct: gene EDC3; full-length recombinant yeast Edc3
T2 sequence (P39998 1-551): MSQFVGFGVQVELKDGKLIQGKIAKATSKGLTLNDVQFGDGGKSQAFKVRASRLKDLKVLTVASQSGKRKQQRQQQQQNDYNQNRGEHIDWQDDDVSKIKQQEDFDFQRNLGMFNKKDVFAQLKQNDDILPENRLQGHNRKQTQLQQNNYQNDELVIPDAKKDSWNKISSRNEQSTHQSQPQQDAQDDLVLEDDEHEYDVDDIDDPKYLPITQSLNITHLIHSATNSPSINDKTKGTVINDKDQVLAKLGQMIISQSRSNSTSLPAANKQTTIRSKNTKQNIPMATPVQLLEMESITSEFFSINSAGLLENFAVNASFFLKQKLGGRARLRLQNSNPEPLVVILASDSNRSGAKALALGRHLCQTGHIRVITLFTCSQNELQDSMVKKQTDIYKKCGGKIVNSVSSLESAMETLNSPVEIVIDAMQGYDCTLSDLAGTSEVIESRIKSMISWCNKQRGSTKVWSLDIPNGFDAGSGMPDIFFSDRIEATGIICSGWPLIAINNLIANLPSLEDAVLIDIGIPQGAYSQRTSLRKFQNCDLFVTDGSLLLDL
In words: thin-layer chromatography of […]-NAD incubated with recombinant protein. The format is biochemical.

`NC(=O)C1=CN([C@@H]2O[C@H](COP(=O)(O)OP(=O)(O)OC[C@H]3O[C@@H](n4cnc5c(N)ncnc54)[C@H](O)[C@@H]3O)[C@@H](O)[C@H]2O)C=CC1` [NADH] had a Kd at hEdc3 of 163 ± 27.4 µM.
Take `NC(=O)c1ccc[n+]([C@@H]2O[C@H](COP(=O)([O-])OP(=O)(O)OC[C@H]3O[C@@H](n4cnc5c(N)ncnc54)[C@H](O)[C@@H]3O)[C@@H](O)[C@H]2O)c1` [NAD]: at yEdc3, the “thin-layer chromatography of 32P-NAD incubated with recombinant protein” value is “Incubation of yeast WT Edc3 with radiolabeled NAD gave rise to two slower migrating species”.
